Assays:
Assay type in all cases: physicochemical
[1] = Stability test of crystal form I (influencing factors)
Procedure: Test substances: the crystal form I was prepared by example 2 of the present invention.
Method: the appropriate amount of crystal form I samples were taken and placed openly at 60° C. and RH 92.5% under light; and the samples were collected on day 5, day 10, and day 30 to investigate changes in the trait, content, and moisture of the samples.

[2] = Solubility in test solutions at different pHs and water; settings: 37° C.
Procedure: (§1) Test substances: the compound of formula (I) was prepared by example 1 of the present invention, the crystal form I was prepared by example 2 of the present invention, the crystal form II was prepared by example 16 of the present invention, the crystal form III was prepared by example 20 of the present invention, the crystal form IV was prepared by example 24 of the present invention, the crystal form V was prepared by example 25 of the present invention, the crystal form VI was prepared by example 27 of the present invention, and the crystal form VII was prepared by example 31 of the present invention.
Preparation of Buffered Salt Solutions at Different pHs:
hydrochloric acid solution at pH 1.0:9 ml of hydrochloric acid was pipetted, and water was added for dilution to 1000 ml; the mixture was mixed homogeneously to obtain a hydrochloric acid solution at pH 1.03. Phosphate buffered solution at pH 4.5:1.56 g of sodium dihydrogen phosphate dihydrate was weighed, and 200 ml of water was added to obtain a phosphate buffered solution at pH 4.50. Phosphate buffered solution at pH 6.8:1.56 g of sodium dihydrogen phosphate dihydrate was weighed, and 200 ml of water was added; and the mixture was adjusted to pH 6.80 with 1 mol/L sodium hydroxide solution.
preparation of buffered solutions at different pHs (samples for determining solubility):
50 mg of each test substance was weighed, and 5 ml of the hydrochloric acid solution (pH 1.0) was added; and the mixture was mixed homogeneously with shaking. About 2.5 mg of each test substance was weighed, and 5 ml of the phosphate buffered solution (pH 4.5), 5 ml of the phosphate buffered solution (pH 6.8), and 5 ml of ultrapure water were added, respectively; the mixture was mixed homogeneously with shaking, and then placed in a 37° C. water bath shaker for shaking; the samples were collected at 24 hours and subjected to centrifugation; and the supernatant was taken and directly injected (if the solubility was high, the supernatant was diluted with a 0.1 mol/L hydrochloric acid solution to an appropriate multiple and then injected).
The solubility of the samples was quantitatively calculated according to the single-point external standard method.

[3] = Stability test of different crystal forms
Procedure: as §1, with “substances:” for “substances: the compound of formula (I) was prepared by example 1 of the present invention,”
Method: the appropriate amount of different test substances were taken, and placed at 105° C. for 3 days, and at 60° C. and RH 92.5% under light for 5 days and 10 days, respectively; and the samples were collected on day 0, day 3, day 5 and day 10 to investigate the changes in the trait and content of the samples.
Table 5 and Table 6 show the results of the trait and content after placement at 105° C. for 3 days. Table 7 and Table 8 show the results of the trait and content after placement at 60° C. and RH 92.5% under light for 5 days. Table 9 and Table 10 show the results of the trait and content after placement at RH 92.5% under light for 10 days.

[4] = Placed openly at 60° C. for 5 days
[5] = Placed openly at 60° C. for 10 days
[6] = Placed openly at 60° C. for 30 days
[7] = Placed openly at RH 92.5% for 5 days
[8] = Placed openly at RH 92.5% for 10 days
[9] = Placed openly at RH 92.5% for 30 days
[10] = Placed openly under light for 5 days
[11] = Placed openly under light for 10 days
[12] = placed openly under light for 30 days

Content ([1]; 0 day): 99.7%
Moisture ([1]; 0 day): 0.08%
Trait ([1]; 0 day): Yellow powder
Content [1, 4]: 99.8%
Moisture [1, 4]: 0.06%
Trait [1, 4]: Yellow powder
Content [1, 5]: 99.8%
Moisture [1, 5]: 0.10%
Trait [1, 5]: Yellow powder
Content [1, 6]: 100.1%
Moisture [1, 6]: 0.12%
Trait [1, 6]: Yellow powder
Content [1, 7]: 99.7%
Moisture [1, 7]: 0.04%
Trait [1, 7]: Yellow powder
Content [1, 8]: 100.3%
Moisture [1, 8]: 0.09%
Trait [1, 8]: Yellow powder
Content [1, 9]: 100.5%
Moisture [1, 9]: 0.09%
Trait [1, 9]: Yellow powder
Content [1, 10]: 99.7%
Moisture [1, 10]: 0.06%
Trait [1, 10]: Yellow powder
Content [1, 11]: 99.3%
Moisture [1, 11]: 0.13%
Trait [1, 11]: Yellow powder
Content [1, 12]: 100.0%
Moisture [1, 12]: 0.09%
Trait [1, 12]: Yellow powder
24-hour solubility ([2]; Water): 110 µg/mL
24-hour solubility ([2]; pH 1.0 hydrochloric acid solution): 8600 µg/mL
24-hour solubility ([2]; pH 4.5 phosphate buffered solution): 130 µg/mL
24-hour solubility ([2]; pH 6.8 phosphate buffered solution): 110 µg/mL
Content ([3]; 0 day): 99.7%
Trait ([3]; 0 day): Yellow powder
Content ([3]; Placed at 60° C. for 5 days): 99.8%
Content ([3]; Placed at RH 92.5% for 5 days): 99.7%
Content ([3]; Placed at RH 92.5% for 10 days): 100.3%
Trait ([3]; Placed at RH 92.5% for 10 days): Yellow powder
Content ([3]; Placed under light for 5 days): 99.7%
Content ([3]; Placed under light for 10 days): 99.3%
Trait ([3]; Placed under light for 10 days): Yellow powder
SMILES: CCc1cc2c(N3CCC(C)(OC)CC3)c(C#N)c(=O)[nH]c2cn1 [Crystal form I, 6-ethyl-4-(4-methoxy-4-methylpiperidin-1-yl)-2-oxo-1,2-dihydro-1,7-diazanaphthal ene-3-carbonitrile]
